Test results taken from US20120329653A1, “SYNERGISTIC HERBICIDAL COMPOSITION CONTAINING PENOXSULAM AND PENDIMETHALIN” (DOW AGROSCIENCES LLC, priority 2011, published 2012).

Tests used:
Type in all cases: in vivo
[1] = system: Alternanthera philoxeroides (alligatorweed); assay: Preemergence field trial in seeded rice, % visual weed control; settings: USA, 22 to 54 days after application
Protocol: (§1) Field trials were conducted in rice and tree crops using standard herbicide small plot research methodology. Plot size was typical for small plot research, varying from 2 to 4 meters (m) wide by 6.7 to 10 meters long. There were 3 to 4 replicates per treatment. Soil types ranged from medium to fine soil texture. Rice or cereal crops were sown by mechanical direct dry seeding as per normal local cultural practices. The rice or cereal crop was grown using normal cultural practices for fertilization, watering, flooding and maintenance to ensure good growth of the crop and the weeds.
(§2) Treatments were applied by backpack sprayer using either compressed air or CO2, at spray pressures from 124 to 276 kilopascals (kPa). Spray tips were typically Flat Fan Teejet nozzles, such as TJ8002 to TJ110015 or XR11001. Spray volumes varied from 93.5 to 250 liters per hectare (L/ha). Penoxsulam was applied as the commercial products Grasp SC (240 gr ai/L) or Clipper 20 OD (20 grams ai/L); pendimethalin was applied as the commercial product Prowl EC.
(§3) For each treatment, the appropriate formulated product amount to treat the plot area, to achieve the desired application rate, based on unit area of application (hectare), was calculated, measured, and mixed in water prior to applying with the backpack sprayer. Treatments were rated as compared to the untreated control plots.
(§4) The treated plots and control plots were rated blind at various intervals after application. Ratings were based of Percent (%) Visual weed control, where 0 corresponds to no injury and 100 corresponds to complete kill.
(§5) Colby's equation was used to determine the herbicidal effects expected from the mixtures (Colby, S. R. Calculation of the synergistic and antagonistic response of herbicide combinations. Weeds 1967, 15, 20-22).
(§6) The following equation was used to calculate the expected activity of mixtures containing two active ingredients, A and B:
(§7) A=observed efficacy of active ingredient A at the same concentration as used in the mixture;
(§8) B=observed efficacy of active ingredient B at the same concentration as used in the mixture.

[2] = system: Echinochloa colonum (junglerice); assay: as above; settings: 60 days after application
Protocol: as §1, §2, §3, §4, §5, §6, §7, §8

[3] = system: Ipomoea spp. (morningglory); assay: as above; settings: Texas, USA, 22 to 54 days after application
Protocol: as §1, §2, §3, §4, §5, §6, §7, §8

[4] = system: Ischaemum rugosum (saramollagrass); assay: as above; settings: 60 days after application
Protocol: as §1, §2, §3, §4, §5, §6, §7, §8

SEBEX = assay: as above; settings: 22 to 54 days after application
Protocol: as §1, §2, §3, §4, §5, §6, §7, §8

[5] = system: Alopecurus myosuroides (blackgrass); assay: Preemergence field trial in perennial tree crops, % weed control; settings: 206 days after application
Protocol: as §1, §2, §3, §4, §5, §6, §7, §8

SMILES	% Visual Control ALRPH Obs ([1]; pendimethalin 1100 gai/ha, Arkansas) [%]	% Visual Control ALRPH Obs ([1]; pendimethalin 1100 gai/ha, Texas) [%]	% Visual Control ECHCO Obs ([2]; pendimethalin 750 gai/ha) [%]	% Visual Control IPOSS Obs ([3]; pendimethalin 1100 gai/ha) [%]	% Visual Control ISCRU Obs ([4]; pendimethalin 750 gai/ha) [%]	% Visual Control SEBEX Obs (SEBEX; pendimethalin 1100 gai/ha) [%]	% Control ALOMY Obs ([5]; pendimethalin 500 gai/ha) [%]	% Control ALOMY Obs ([5]; pendimethalin 1000 gai/ha) [%]	% Visual Control ALRPH Obs ([1]; penoxsulam 20 gai/ha, Arkansas) [%]	% Visual Control ALRPH Obs ([1]; penoxsulam 20 gai/ha, Texas) [%]	% Visual Control ECHCO Obs ([2]; penoxsulam 20 gai/ha) [%]	% Visual Control IPOSS Obs ([3]; penoxsulam 20 gai/ha) [%]	% Visual Control ISCRU Obs ([4]; penoxsulam 30 gai/ha) [%]	% Visual Control SEBEX Obs (SEBEX; penoxsulam 40 gai/ha) [%]	% Control ALOMY Obs ([5]; penoxsulam 10 gai/ha) [%]	% Control ALOMY Obs ([5]; penoxsulam 20 gai/ha) [%]	% Control ALOMY Obs ([5]; penoxsulam 30 gai/ha) [%]	% Control ALOMY Obs ([5]; penoxsulam 40 gai/ha) [%]
CCC(CC)Nc1c([N+](=O)[O-])cc(C)c(C)c1[N+](=O)[O-] [Pendimethalin, N-(1-ethylpropyl)-3,4-dimethyl-2,6-dinitrobenzenamine]	0	0	55	35	57	14	0	7	–	–	–	–	–	–	–	–	–	–
COc1cnc(OC)n2nc(NS(=O)(=O)c3c(OCC(F)F)cccc3C(F)(F)F)nc12 [Penoxsulam]	–	–	–	–	–	–	–	–	43	74	25	21	35	40	0	20	43	50
